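Values below derive from 48-hour exposures of cells grown in 96-well plates, with endpoints linearly interpolated between the two concentrations bracketing the appropriate inhibition level. GI50 marks 50% less growth. The concentration for full growth arrest is given as TGI.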
Tests used:
Experiment in all cases: DTP human tumour cell line panel, 48 h
OVCAR-5 ovarian = test system: OVCAR-5 ovarian
MALME-3M melanoma = test system: MALME-3M melanoma
MDA-MB-435 = test system: MDA-MB-435
IGROV1 ovarian = test system: IGROV1 ovarian
K-562 leukemia = test system: K-562 leukemia
UACC-62 melanoma = test system: UACC-62 melanoma
M14 melanoma = test system: M14 melanoma
MDA-MB-231 breast = test system: MDA-MB-231 breast
SK-MEL-28 melanoma = test system: SK-MEL-28 melanoma
RXF 393 renal = test system: RXF 393 renal
SK-MEL-5 melanoma = test system: SK-MEL-5 melanoma
TK-10 renal = test system: TK-10 renal
SNB-19 CNS = test system: SNB-19 CNS
NCI/ADR-RES ovarian = test system: NCI/ADR-RES ovarian
BT-549 breast = test system: BT-549 breast
SF-268 CNS = test system: SF-268 CNS
HL-60(TB) leukemia = test system: HL-60(TB) leukemia
A498 renal = test system: A498 renal
OVCAR-4 ovarian = test system: OVCAR-4 ovarian
HT29 colon = test system: HT29 colon
MOLT-4 leukemia = test system: MOLT-4 leukemia
ACHN renal = test system: ACHN renal
SNB-75 CNS = test system: SNB-75 CNS
786-0 renal = test system: 786-0 renal
UO-31 renal = test system: UO-31 renal
SK-OV-3 ovarian = test system: SK-OV-3 ovarian
SK-MEL-2 melanoma = test system: SK-MEL-2 melanoma
EKVX NSCLC = test system: EKVX NSCLC
HOP-62 NSCLC = test system: HOP-62 NSCLC
RPMI-8226 leukemia = test system: RPMI-8226 leukemia
NCI-H23 lung = test system: NCI-H23 lung
KM12 colon = test system: KM12 colon
OVCAR-8 ovarian = test system: OVCAR-8 ovarian
HOP-92 NSCLC = test system: HOP-92 NSCLC
CCRF-CEM leukemia = test system: CCRF-CEM leukemia
PC-3 prostate = test system: PC-3 prostate
NCI-H226 lung = test system: NCI-H226 lung
COLO 205 colon = test system: COLO 205 colon
A549 NSCLC = test system: A549 NSCLC
HCT-15 colon = test system: HCT-15 colon
NCI-H522 lung = test system: NCI-H522 lung
HCC-2998 colon = test system: HCC-2998 colon
CAKI-1 renal = test system: CAKI-1 renal
NCI-H460 lung = test system: NCI-H460 lung
HCT-116 colon = test system: HCT-116 colon
OVCAR-3 ovarian = test system: OVCAR-3 ovarian
UACC-257 melanoma = test system: UACC-257 melanoma
HS 578T breast = test system: HS 578T breast
SF-295 CNS = test system: SF-295 CNS
SW-620 colon = test system: SW-620 colon
SR leukemia = test system: SR leukemia
MCF7 breast = test system: MCF7 breast
LOX IMVI melanoma = test system: LOX IMVI melanoma
SN12C renal = test system: SN12C renal
U251 CNS = test system: U251 CNS
DU-145 prostate = test system: DU-145 prostate
T-47D breast = test system: T-47D breast
SF-539 CNS = test system: SF-539 CNS

SMILES: CC1OC(n2c3ccccc3c3c4c(c5c6ccccc6[nH]c5c32)C(=O)N(CCN2CCOCC2)C4=O)CC(O)C1O (configuration not stated)
- GI50 (OVCAR-5 ovarian): 5.36 µM
- TGI (OVCAR-5 ovarian): 12.9 µM
- GI50 (MALME-3M melanoma): 4.54 µM
- TGI (MALME-3M melanoma): 12.8 µM
- GI50 (MDA-MB-435): 2.71 µM
- TGI (MDA-MB-435): 9.59 µM
- GI50 (IGROV1 ovarian): 3.67 µM
- TGI (IGROV1 ovarian): 16 µM
- GI50 (K-562 leukemia): 1.85 µM
- TGI (K-562 leukemia): 50 µM
- GI50 (UACC-62 melanoma): 1.03 µM
- TGI (UACC-62 melanoma): 6.06 µM
- GI50 (M14 melanoma): 1.43 µM
- TGI (M14 melanoma): 5.95 µM
- GI50 (MDA-MB-231 breast): 6.63 µM
- TGI (MDA-MB-231 breast): 18.9 µM
- GI50 (SK-MEL-28 melanoma): 5.61 µM
- TGI (SK-MEL-28 melanoma): 13.8 µM
- GI50 (RXF 393 renal): 2.82 µM
- TGI (RXF 393 renal): 10.6 µM
- GI50 (SK-MEL-5 melanoma): 1.59 µM
- TGI (SK-MEL-5 melanoma): 6.29 µM
- GI50 (TK-10 renal): 6.33 µM
- TGI (TK-10 renal): 13.8 µM
- GI50 (SNB-19 CNS): 2.18 µM
- TGI (SNB-19 CNS): 17.8 µM
- GI50 (NCI/ADR-RES ovarian): 2.87 µM
- TGI (NCI/ADR-RES ovarian): 13.1 µM
- GI50 (BT-549 breast): 2.83 µM
- TGI (BT-549 breast): 12.1 µM
- GI50 (SF-268 CNS): 1.66 µM
- TGI (SF-268 CNS): 9.65 µM
- GI50 (HL-60(TB) leukemia): 2.28 µM
- TGI (HL-60(TB) leukemia): 13.1 µM
- GI50 (A498 renal): 5.13 µM
- TGI (A498 renal): 13.4 µM
- GI50 (OVCAR-4 ovarian): 4.03 µM
- TGI (OVCAR-4 ovarian): 14.1 µM
- GI50 (HT29 colon): 1.92 µM
- TGI (HT29 colon): 9.91 µM
- GI50 (MOLT-4 leukemia): 1.2 µM
- TGI (MOLT-4 leukemia): 9.93 µM
- GI50 (ACHN renal): 1.51 µM
- TGI (ACHN renal): 6.74 µM
- GI50 (SNB-75 CNS): 0.729 µM
- TGI (SNB-75 CNS): 5.87 µM
- GI50 (786-0 renal): 1.49 µM
- TGI (786-0 renal): 6.53 µM
- GI50 (UO-31 renal): 1.96 µM
- TGI (UO-31 renal): 10.8 µM
- GI50 (SK-OV-3 ovarian): 2.29 µM
- TGI (SK-OV-3 ovarian): 9.77 µM
- GI50 (SK-MEL-2 melanoma): 10.6 µM
- TGI (SK-MEL-2 melanoma): 22 µM
- GI50 (EKVX NSCLC): 6.14 µM
- TGI (EKVX NSCLC): 17.7 µM
- GI50 (HOP-62 NSCLC): 1.52 µM
- TGI (HOP-62 NSCLC): 8.26 µM
- GI50 (RPMI-8226 leukemia): 2.97 µM
- TGI (RPMI-8226 leukemia): 20.7 µM
- GI50 (NCI-H23 lung): 2 µM
- TGI (NCI-H23 lung): 11.1 µM
- GI50 (KM12 colon): 2.64 µM
- TGI (KM12 colon): 10.5 µM
- GI50 (OVCAR-8 ovarian): 2.74 µM
- TGI (OVCAR-8 ovarian): 16.5 µM
- GI50 (HOP-92 NSCLC): 7.77 µM
- TGI (HOP-92 NSCLC): 15.8 µM
- GI50 (CCRF-CEM leukemia): 2.1 µM
- TGI (CCRF-CEM leukemia): 18.1 µM
- GI50 (PC-3 prostate): 3.55 µM
- TGI (PC-3 prostate): 11.4 µM
- GI50 (NCI-H226 lung): 2.2 µM
- TGI (NCI-H226 lung): 9.87 µM
- GI50 (COLO 205 colon): 1.22 µM
- TGI (COLO 205 colon): 7.81 µM
- GI50 (A549 NSCLC): 2.51 µM
- TGI (A549 NSCLC): 10.4 µM
- GI50 (HCT-15 colon): 2.34 µM
- TGI (HCT-15 colon): 13.5 µM
- GI50 (NCI-H522 lung): 1.52 µM
- TGI (NCI-H522 lung): 11.1 µM
- GI50 (HCC-2998 colon): 7.03 µM
- TGI (HCC-2998 colon): 14 µM
- GI50 (CAKI-1 renal): 1.44 µM
- TGI (CAKI-1 renal): 6.37 µM
- GI50 (NCI-H460 lung): 0.734 µM
- TGI (NCI-H460 lung): 5.27 µM
- GI50 (HCT-116 colon): 1.33 µM
- TGI (HCT-116 colon): 6.92 µM
- GI50 (OVCAR-3 ovarian): 4.36 µM
- TGI (OVCAR-3 ovarian): 12.2 µM
- GI50 (UACC-257 melanoma): 6.11 µM
- TGI (UACC-257 melanoma): 14.5 µM
- GI50 (HS 578T breast): 6.32 µM
- TGI (HS 578T breast): 16.2 µM
- GI50 (SF-295 CNS): 1.61 µM
- TGI (SF-295 CNS): 6.23 µM
- GI50 (SW-620 colon): 1.07 µM
- TGI (SW-620 colon): 8.78 µM
- GI50 (SR leukemia): 0.257 µM
- TGI (SR leukemia): 14.5 µM
- GI50 (MCF7 breast): 1.05 µM
- TGI (MCF7 breast): 18 µM
- GI50 (LOX IMVI melanoma): 0.962 µM
- TGI (LOX IMVI melanoma): 6.12 µM
- GI50 (SN12C renal): 1.75 µM
- TGI (SN12C renal): 7.47 µM
- GI50 (U251 CNS): 1.24 µM
- TGI (U251 CNS): 7.19 µM
- GI50 (DU-145 prostate): 2 µM
- TGI (DU-145 prostate): 7.85 µM
- GI50 (T-47D breast): 1.37 µM
- TGI (T-47D breast): 10.4 µM

SMILES: CC(C)[Si](OC1=C(c2ccccc2)C(NC(=O)/C=C/c2ccc([N+](=O)[O-])cc2)CCC1)(C(C)C)C(C)C (configuration not stated)
- TGI (OVCAR-5 ovarian): > 100 µM
- TGI (MALME-3M melanoma): > 100 µM
- TGI (MDA-MB-435): > 100 µM
- TGI (IGROV1 ovarian): > 100 µM
- TGI (K-562 leukemia): > 100 µM
- TGI (UACC-62 melanoma): > 100 µM
- TGI (M14 melanoma): > 100 µM
- TGI (SF-539 CNS): > 100 µM
- TGI (MDA-MB-231 breast): > 100 µM
- TGI (RXF 393 renal): > 100 µM
- TGI (SK-MEL-5 melanoma): > 100 µM
- TGI (TK-10 renal): > 100 µM
- TGI (SNB-19 CNS): > 100 µM
- TGI (NCI/ADR-RES ovarian): > 100 µM
- TGI (BT-549 breast): > 100 µM
- TGI (SF-268 CNS): > 100 µM
- TGI (HL-60(TB) leukemia): > 100 µM
- TGI (A498 renal): > 100 µM
- TGI (HT29 colon): > 100 µM
- TGI (MOLT-4 leukemia): > 100 µM
- TGI (SNB-75 CNS): > 100 µM
- TGI (786-0 renal): > 100 µM
- TGI (UO-31 renal): > 100 µM
- TGI (SK-OV-3 ovarian): > 100 µM
- TGI (SK-MEL-2 melanoma): > 100 µM
- TGI (EKVX NSCLC): > 100 µM
- TGI (HOP-62 NSCLC): > 100 µM
- TGI (RPMI-8226 leukemia): > 100 µM
- TGI (NCI-H23 lung): > 100 µM
- TGI (KM12 colon): > 100 µM
- TGI (OVCAR-8 ovarian): > 100 µM
- TGI (HOP-92 NSCLC): > 100 µM
- TGI (CCRF-CEM leukemia): > 100 µM
- TGI (PC-3 prostate): > 100 µM
- TGI (NCI-H226 lung): > 100 µM
- TGI (COLO 205 colon): > 100 µM
- TGI (A549 NSCLC): > 100 µM
- TGI (HCT-15 colon): > 100 µM
- TGI (NCI-H522 lung): > 100 µM
- TGI (HCC-2998 colon): > 100 µM
- TGI (NCI-H460 lung): > 100 µM
- TGI (HCT-116 colon): > 100 µM
- TGI (OVCAR-3 ovarian): > 100 µM
- TGI (UACC-257 melanoma): > 100 µM
- TGI (HS 578T breast): > 100 µM
- TGI (SF-295 CNS): > 100 µM
- TGI (SW-620 colon): > 100 µM
- TGI (SR leukemia): > 100 µM
- TGI (MCF7 breast): > 100 µM
- TGI (LOX IMVI melanoma): > 100 µM
- TGI (U251 CNS): > 100 µM
- TGI (DU-145 prostate): > 100 µM
- TGI (T-47D breast): > 100 µM

Source: PubChem BioAssay (NCI)
